Results published in patent publication US20170049793A1, “MOLECULAR ACTIVATORS OF THE WNT/BETA-CATENIN PATHWAY” (THE GENERAL HOSPITAL CORPORATION, priority 2009, published 2017).

Key:
[1] = test system: nuclear β-catenin (Wnt/β-catenin pathway) in B16 cells; experiment: Immunofluorescent staining of β-catenin in B16 cells; type: cell-based, murine; conditions: 1 μM BIO vs DMSO control
Description: A polyclonal rabbit anti-β-catenin antibody was used for detection of 1β-catenin (1:1000 dilution for immunoblot, 1:200 dilution for immunohistochemistry). Cells were grown on 18 mm glass coverslips, for 48-72 hours, fixed using 4% paraformaldehyde, permeabilized using 0.25% Triton X-100, and then blocked with 10% goat serum. Goat anti-rabbit Alexa Fluor-568 antibody (Molecular Probes; Eugene, Oreg.) was diluted 1:1000. Cells were counterstained for nucleic acid with DAPI (Molecular Probes; Eugene, Oreg.). Paraffin-embedded nevus sections were stained using an antibody dilution of 1:200. Cellular lysates were obtained by lysing cells on plate with a 0.1% NP-40 based buffer and analyzed by NuPage 4-12% gradient gels (Invitrogen; Grand Island, N.Y.). The WNTSA antibody was obtained from Cell Signaling Technologies (Danvers, Mass.).

[2] = test system: Axin2 expression (Wnt/β-catenin pathway) in B16 cells; experiment: Quantitative PCR of the Wnt/β-catenin target gene Axin2 in B16 cells; type: cell-based, murine; conditions: 1 μM BIO vs control cells
Description: Cells were cultured for approximately 72 hours until they reached 80-90% confluency. RNA was purified using the RNeasy kit using the manufacturer's protocol (Qiagen; Maryland, Md.). cDNA was synthesized using Superscript Reverse Transcriptase (Invitrogen; Grand Island, N.Y.). Light Cycler FastStart DNA Master SYBR Green1 (Roche; Mannheim, Germany) was used for real-time PCR as previously described (Major et al., Science 316:1043 (2007), which is hereby incorporated by reference in its entirety). Quantitative PCR results presented in the manuscript are representative of experiments performed on a minimum of three biologic replicates.

B16 melanoma cells = experiment: MTT proliferation assay in B16 melanoma cells; type: cell-based, murine; conditions: 1 μM BIO vs control cells
[3] = Suitability for murine therapeutic trials (toxicity, serum levels); type: in vivo, mice; conditions: precluding murine therapeutic trials

Question: Which results are given for `O=C1Nc2cc(Br)ccc2/C1=C1/Nc2ccccc2/C1=N\O` [BIO, 6-bromoindirubin-3′-oxime]?
Answer: nuclear β-catenin (immunofluorescent staining) [1]: increased nuclear β-catenin; Axin2 levels (quantitative PCR) [2]: increased Axing levels; proliferation (MTT assay) (B16 melanoma cells): decreased proliferation; toxicity [3]: obstacles relating to both toxicity
